In general, EC50 refers to the concentration needed to bring the measured effect to its halfway point. Read a high EC50 as a need for much substance.

The results in this text go back to patent US10456451B2, “Protease-resistant mutants of stromal cell derived factor-1 in the repair of tissue damage” (Mesoblast International Sàrl, priority 2010, dated 2019).

One assay has as its target T1, MMP-2 (Homo sapiens, UniProt P08253).
T1 construct: purchased R&D Systems
T1 sequence (P08253 110-660): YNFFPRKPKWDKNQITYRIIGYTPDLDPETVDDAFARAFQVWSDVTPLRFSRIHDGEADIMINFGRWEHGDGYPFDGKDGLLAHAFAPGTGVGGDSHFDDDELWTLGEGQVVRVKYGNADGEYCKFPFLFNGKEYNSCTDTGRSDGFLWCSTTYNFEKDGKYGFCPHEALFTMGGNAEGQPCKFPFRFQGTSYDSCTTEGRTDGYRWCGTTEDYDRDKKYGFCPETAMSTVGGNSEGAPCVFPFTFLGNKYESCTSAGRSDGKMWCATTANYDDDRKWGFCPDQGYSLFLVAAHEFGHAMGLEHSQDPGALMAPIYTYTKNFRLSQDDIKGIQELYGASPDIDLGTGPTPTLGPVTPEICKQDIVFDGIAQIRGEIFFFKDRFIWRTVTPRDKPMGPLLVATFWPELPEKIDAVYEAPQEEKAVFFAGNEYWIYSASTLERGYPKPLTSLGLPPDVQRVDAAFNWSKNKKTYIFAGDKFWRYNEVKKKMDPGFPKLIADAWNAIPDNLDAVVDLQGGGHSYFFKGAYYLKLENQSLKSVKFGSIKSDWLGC
In words: MMP-2 cleavage of Sumo fusion proteins, SDS-PAGE. In kind it is biochemical. Here is the method:
Human recombinant MMP-2 (R&D Systems) was activated for 1 hour with 4-aminophenylmercuric acetate (APMA, 1 mM) at 37° C. 4 μg of Sumo-SSDF-1-RAD or Sumo-SSDF-1(S4V)-RAD was incubated for 1 hour to 48 hours at 21° C. with 50 ng of activated MMP-2 in TCNB buffer (50 mM Tris, pH 7.5, 10 mM CaCl2, 150 mM NaCl, 0.05% Brij-35). Sample loading buffer (Invitrogen) and 2-mercaptoethanol (0.5 M, final concentration) were added, and samples were boiled for 5 minutes and run on a 10% Bis-Tris gel. Proteins used for this experiment were obtained after cation-exchange chromatography, but were neither cleaved by Sumo-protease nor purified by RPC-HPLC.

Assay [1] has as its system Jurkat T-lymphocytic cells. In words: Jurkat T-lymphocyte migration (chemotaxis) assay. In kind it is cell-based. How it is done: Jurkat cells were labeled with Calcein-AM (1 μM) for 60 minutes at 37° C., washed twice and resuspended in RPMI without phenol red to a final density of 4,000,000 cells/ml. […] Cells were allowed to migrate for 3 hours, and cells in lower wells were washed once with PBS. Fluorescence in lower wells was measured at 485 nm excitation and 535 nm emission wavelengths with a Victor Wallace II plate reader. A standard curve was constructed for each experiment to normalize fluorescence to the number of cells.

The target of a further assay is CXCR7 (Homo sapiens, UniProt P25106). Put plainly: CXCR7 β-arrestin recruitment assay (PathHunter). Format: cell-based. How it is done: (§1) PathHunter β-arrestin assays were performed following the instructions of the manufacturer (DiscoveRx). Briefly, PathHunter cell lines stably expressing both a β-arrestin-Enzyme Acceptor of β-galactosidase fusion and one of the chemokine receptors fused with the ProLink donor peptide of […] were employed. Upon CXCR stimulation, β-arrestin is recruited to the receptor for desensitization, bringing the two fragments (the Enzyme Acceptor and the ProLink) of β-galactosidase together. This generates an active β-galactosidase enzyme that can convert a substrate to a chemiluminescent product. Cells were seeded at a density of 5000 cells/well in a 384-well plate and were allowed to adhere overnight. […] After incubation, chemiluminescent signal was generated through addition of 12.5 μl (50% v/v) of PathHunter Detection reagent cocktail (DiscoveRx) followed by a 1-hour incubation at room temperature. Microplates were read with a PerkinElmer ViewLux instrument.
Sequence of CXCR7 (P25106 whole entry, the tested form may be a part): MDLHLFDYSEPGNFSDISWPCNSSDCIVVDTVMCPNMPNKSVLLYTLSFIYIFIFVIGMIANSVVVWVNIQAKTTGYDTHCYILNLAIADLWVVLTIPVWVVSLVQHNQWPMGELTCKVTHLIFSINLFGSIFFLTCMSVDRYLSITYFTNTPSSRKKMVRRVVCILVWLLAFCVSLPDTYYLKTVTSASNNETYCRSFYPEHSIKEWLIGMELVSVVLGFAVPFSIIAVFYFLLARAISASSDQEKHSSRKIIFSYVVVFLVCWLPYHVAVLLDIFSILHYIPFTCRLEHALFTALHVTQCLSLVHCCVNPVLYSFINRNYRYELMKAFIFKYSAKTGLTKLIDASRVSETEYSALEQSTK
(In general: Arrestin recruitment assays detect the binding of arrestin to an activated receptor.)

The target in assay [2] is T2, CXCR4 (Homo sapiens, UniProt P61073). Put plainly: CXCR4 β-arrestin recruitment assay (PathHunter). In kind it is cell-based. Here is the method:
as §1

The test system of assay [3] is ischemic hindlimb blood flow. Put plainly: Hindlimb ischemia model, laser Doppler blood flow. In kind it is in vivo, C57BL/6 mice. Particulars: without nanofibers. Here is the method: All animal protocols were approved by the institutional IACUC and performed in an AAALAC certified facility. Studies were performed blinded and randomized. Hindlimb ischemia was produced in male C57BL/6 mice (305 mice total), 8 to 12 weeks old (Jackson Laboratories and Charles River Laboratories). Mice were anesthetized with isoflurane (2-3% in 100% oxygen) and buprenorphin (0.05 mg/kg). Femoral artery was ligated and excised below the inguinal ligament and above the bifurcation of the popliteal artery. Protein and self-assembling peptide nanofibers were injected in the lower hindlimb after excision of the artery. Peptides were dissolved in isotonic sucrose (10%). Post-operative analgesia was provided with buprenorphin (0.05 mg/kg every 6 to 12 hours for 72 hours). The surgeon was blinded to the treatment groups in all studies performed. The first study included 35 animals total (5 animals per group), which received an intramuscular injection in the lower hindlimb with biotin-labeled nanofibers (biotin-RAD, 0.01% in 1% nanofibers hydrogel). Tissues were harvested at seven different time points and nanofibers were stained with Alexa fluor-labeled streptavidin. The second study included 40 animals (10 per group) with four groups: control without injection, nanofibers only, nanofibers+100 nM SSDF-1-RAD, and nanofibers+100 nM SSDF-1(S4V)-RAD. Laser Doppler blood flow measurements were performed with a Moor LDI2-IR (Moor Instruments) 2, 4, and 6 weeks after surgery. At each time point, five measurements (on average) per animal were made, and blood flow in the ischemic limb was normalized to blood flow in normal limb. The third study included 50 animals with four different dosages of SSDF-1(S4V)-RAD; all groups contained nanofibers. All laser Doppler measurements and histology quantifications were made by an operator blinded to the treatment groups.

The target of assay [4] is T2, CXCR4. Put plainly: CXCR4 cAMP receptor activation assay (CHO-K1 cells expressing CXCR4). In kind it is cell-based. Set-up: host or cells: CHO-K1. Particulars: decrease in cAMP by Gαi activation, forskolin at EC80. Here is the method: For the CXCR4 cAMP assay, CHO-K1 cells stably expressing the CXCR4 receptor (DiscoveRx, Fremont, Calif.) were seeded at a density of 10,000 cells/well in a 384-well plate and were allowed to recover overnight. A decrease in cAMP by CXCR4-induced Gαi activation was determined using the DiscoveRx HitHunter cAMP XS+assay following the manufacturer's protocol. […] Chemiluminescence was read with a PerkinElmer ViewLux instrument.

T2 sequence (P61073 whole entry): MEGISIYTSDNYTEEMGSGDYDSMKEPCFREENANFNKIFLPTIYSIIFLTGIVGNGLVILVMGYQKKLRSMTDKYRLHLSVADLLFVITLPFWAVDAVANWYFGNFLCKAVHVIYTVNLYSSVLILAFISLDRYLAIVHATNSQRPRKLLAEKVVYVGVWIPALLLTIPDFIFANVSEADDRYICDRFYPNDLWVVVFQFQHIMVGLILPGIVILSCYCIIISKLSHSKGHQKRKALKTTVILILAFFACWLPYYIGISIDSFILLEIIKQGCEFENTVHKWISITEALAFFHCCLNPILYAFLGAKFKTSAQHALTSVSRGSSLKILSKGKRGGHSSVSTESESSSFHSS

For “SDF-1(S4V): SDF-1 with Ser→Val at position 4, SEQ ID NO:65”, the “rate of cleavage lower than SDF-1” value with MMP-2 is “at least 48 times”.

Take “SSDF-1 (S4V): SDF-1(S4V) (SEQ ID NO:65) with a serine residue added at the N-terminus”: the concentration giving a half-maximal response (EC50) in assay [1] (Jurkat cells, 3 hours migration) was determined as 5.4 nM; with CXCR7, 37 nM; with CXCR4 [2] it was 28 nM; with CXCR4 [4], 20 nM. In addition, the “activity in Jurkat cell migration assay” value in assay [1] (result in words) is recorded as “highest potency”. Moreover, in assay [3] (four weeks, 4 administrations (d0, d1, d3, d5) of 1 mg/kg), the “average blood flow (ratio of ischemic to control limb)” value amounted to 27.1±2.5%. In addition, the “blood flow differences between groups” value in assay [3] (fourth study, 1 mg/kg daily IM for first 7 days) is “No significant differences in blood flow”; in assay [3] (separate confirming study, same doses and schedule), “did not show significant differences between groups”; in assay [3] (third study, 0.1, 0.3, 1 and 3 mg/kg at d0, d1, d3, d5) it was “No significant differences in blood flow”.
